pKi: −log10 of the molar value. Where two headings read alike, the source gives them in different places.
Legend:
[1] = target: Sc-tPA (single chain tPA) (Homo sapiens, UniProt P00750); assay: In vitro inhibition of serine proteases: Sc-tPA; format: biochemical
Experimental: (§1) To determine the inhibitory activity, 200 μl of Tris buffer (0.05 mol/l, containing the inhibitor, 0.154 mol/l NaCl, 5% ethanol pH 8.0), 25 μl of substrate (Pefachrome UK or Bz-βAla-Gly-Arg-pNA in H2O; Pentapharm Ltd., Basle, Switzerland) and 50 μl of sc-urokinase (Ribosepharm GmbH, Haan, Germany) were incubated at 25° C. After 3 min the reaction was stopped by adding 25 μl of acetic acid (50%), and the absorption at 405 nm was determined by means of a Microplate Reader (MR 5000, Dynatech, Denkendorf, Germany). Ki values were determined according to Dixon by linear regression using a computer program. The Ki values are the mean values of at least three determinations with a standard deviation of less than 25%.
(§2) The inhibition activities of the enzymes used were determined according to the principle described in Example 3.

Thrombin = Thrombin (Homo sapiens, UniProt P00734); assay: In vitro inhibition of serine proteases: thrombin; format: biochemical
Experimental: (§3) Ki values were determined according to Dixon by linear regression using a computer program.

[2] = test system: pancreatic adenocarcinoma CA20948; assay: Pancreatic carcinoma model in rats; format: in vivo, rat; details: for mass of the tumor-containing pancreas, reduced by % / masses of the subcutaneous tumors, reduced by %: vs vehicle-treated group
Experimental: Fragments of the transplantable and metastasizing pancreatic adenocarcinoma CA20948 from rats were explanted from donor animals. After cell isolation, equal amounts of suspended tumor cells together with 2 mg of Matrigel were subcutaneously implanted into each of the acceptor animals, male 10 week-old Lewis rats (n=9). The treatment procedure and also the composition of the therapy groups were the same as under A).
The experiments described in sections A and B were repeated with the inhibitor administered in a different way. For this, the inhibitor was administered subcutaneously in the breast carcinoma model (n=9) and intraperitoneally in the pancreatic adenocarcinoma model (n=8) without changing the daily dose. The results of these repeat experiments corresponded to the results already discussed, both in tendency and extent.

Plasmin = target: T1, Plasmin (Homo sapiens, UniProt P00747); assay: In vitro inhibition of serine proteases: plasmin; format: biochemical
T1 construct: uPA mediates the proteolytic cleavage of plasminogen to give plasmin
Experimental: as §3

[3] = test system: human breast carcinoma cells (MDA-BA-231); assay: Human breast cancer cells in nude mice; format: in vivo, Balb/c nude mice; details: 1.2 mg/kg i.p. twice a week, vs control (FIG. 6)
Experimental: In order to test the in vivo efficacy of the inhibitor for inhibiting tumor growth of human breast carcinoma cells (MDA-BA-231), 6×10^6 cells were injected subcutaneously into the right flank of Balb/c nude mice (4-6 weeks old). The tumor cells were preincubated with the synthetic uPA inhibitor prior to inoculation. After 24 h, the mice were treated twice a week intraperitoneally with a dose of 1.2 mg/kg body weight as described under A). The tumor size was determined weekly by measuring the two largest diameters.

[4] = test system: BN-472 rat mammary carcinoma; assay: BN-472 rat mammary carcinoma model, single agent and combination with cytotoxics (Example 11)
Experimental: WX-UK1 was dissolved in 5% w/v of D-mannitol to the appropriate dosage and administered once daily or twice weekly either subcutaneously (s.c.) or intraperitonally (i.p.).
Epirubicin (0.75-3 mg/kg body wight), paclitaxel (5-7.5 mg/kg) or 5-FU (20 and 40 mg/kg) was given once weekly by i.v. injection into the external jugular vein.
Control rats received the vehicle 5% w/v of D-mannitol once daily s.c.
A donor rat bearing a tumor of 20×20 mm was sacrificed, the tumor harvested ant the cortex part was sliced into cubes of approximately 10 mm^3 and the transplated orthotopically under the mammary fad pads of female Brown Norway rats.
Treatment was started three or six days (5-FU experiment) after tumor inoculation. Each treatment group consisted of 15 to 21 rats.
Tumor load is plotted as the average±standard error of the mean (SEM).
Tumor, organ weights as well as lung foci counts are presented in Box-Whisker graphs. […] Whiskers extend to the extreme lower 5th and upper 95th percentiles of values. Dots represent individual data.
P-values represent significance levels of pairwise comparisons of treatment groups versus vehicle control. For combination therapy experiments the P-values for the comparison of a cytostatic mono-therapy versus the combination therapy is given.

Urokinase (sc-urokinase) = target: T2, Urokinase (sc-urokinase) (Homo sapiens, UniProt P00749); assay: In vitro inhibition of urokinase (chromogenic substrate, Dixon Ki); format: biochemical
T2 construct: purchased Ribosepharm GmbH, Haan, Germany
Experimental: as §1

Tryptase = Tryptase (Homo sapiens, UniProt Q15661); assay: In vitro inhibition of serine proteases: tryptase; format: biochemical
Experimental: as §1, §2

[5] = Solubility in Tris buffer; details: Tris buffer (pH 7.3)
Factor XIIa = target: T3, Factor XIIa (Homo sapiens, UniProt P00748); assay: In vitro inhibition of serine proteases: factor XIIa; format: biochemical
T3 sequence (P00748 373-615 limits assumed): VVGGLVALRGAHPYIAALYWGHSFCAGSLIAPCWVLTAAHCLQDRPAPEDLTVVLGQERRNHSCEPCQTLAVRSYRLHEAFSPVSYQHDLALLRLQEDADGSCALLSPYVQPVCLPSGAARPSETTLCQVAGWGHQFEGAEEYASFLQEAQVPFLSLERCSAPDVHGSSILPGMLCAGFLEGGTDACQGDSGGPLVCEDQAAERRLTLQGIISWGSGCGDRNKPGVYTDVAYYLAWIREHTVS
Experimental: as §1, §2

[6] = 1 mg/kg daily, vs naphthyl derivative and control (FIG. 5)

T1 sequence (P00747 581-810 limits assumed, species assumed): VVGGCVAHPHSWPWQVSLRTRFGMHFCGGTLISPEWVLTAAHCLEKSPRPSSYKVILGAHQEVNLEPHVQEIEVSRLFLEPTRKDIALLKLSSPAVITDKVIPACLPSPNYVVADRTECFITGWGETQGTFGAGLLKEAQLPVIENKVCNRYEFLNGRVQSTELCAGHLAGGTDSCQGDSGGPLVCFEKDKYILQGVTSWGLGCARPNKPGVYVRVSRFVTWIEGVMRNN
T1 sequence (P00747 97-580 partner limits assumed, species assumed): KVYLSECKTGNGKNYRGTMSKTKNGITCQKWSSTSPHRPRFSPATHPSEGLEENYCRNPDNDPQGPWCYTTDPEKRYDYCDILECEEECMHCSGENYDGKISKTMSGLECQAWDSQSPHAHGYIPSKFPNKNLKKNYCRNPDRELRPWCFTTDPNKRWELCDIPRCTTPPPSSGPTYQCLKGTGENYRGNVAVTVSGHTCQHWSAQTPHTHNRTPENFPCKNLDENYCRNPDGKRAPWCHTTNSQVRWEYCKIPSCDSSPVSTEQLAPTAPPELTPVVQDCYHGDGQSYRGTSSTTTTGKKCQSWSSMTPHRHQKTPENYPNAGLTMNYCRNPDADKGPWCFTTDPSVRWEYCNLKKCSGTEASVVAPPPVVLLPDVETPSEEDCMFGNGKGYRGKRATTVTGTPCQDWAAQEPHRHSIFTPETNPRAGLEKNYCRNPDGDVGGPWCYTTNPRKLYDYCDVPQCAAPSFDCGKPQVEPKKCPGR
Sc-tPA (single chain tPA), sequence (P00750 36-562): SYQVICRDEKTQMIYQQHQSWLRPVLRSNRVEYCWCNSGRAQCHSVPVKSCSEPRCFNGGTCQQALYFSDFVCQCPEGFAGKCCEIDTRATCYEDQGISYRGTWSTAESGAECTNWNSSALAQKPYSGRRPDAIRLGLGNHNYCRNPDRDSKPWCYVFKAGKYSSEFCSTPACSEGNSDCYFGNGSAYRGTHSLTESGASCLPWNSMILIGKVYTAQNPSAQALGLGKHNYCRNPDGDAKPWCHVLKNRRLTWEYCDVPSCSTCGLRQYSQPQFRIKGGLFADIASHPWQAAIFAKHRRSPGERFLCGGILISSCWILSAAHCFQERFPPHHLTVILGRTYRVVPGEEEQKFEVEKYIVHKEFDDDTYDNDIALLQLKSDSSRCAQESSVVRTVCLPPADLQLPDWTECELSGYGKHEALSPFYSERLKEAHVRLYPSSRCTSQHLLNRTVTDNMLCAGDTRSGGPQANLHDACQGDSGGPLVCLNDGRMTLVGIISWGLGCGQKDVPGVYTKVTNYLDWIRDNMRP
Tryptase, sequence (Q15661 31-275): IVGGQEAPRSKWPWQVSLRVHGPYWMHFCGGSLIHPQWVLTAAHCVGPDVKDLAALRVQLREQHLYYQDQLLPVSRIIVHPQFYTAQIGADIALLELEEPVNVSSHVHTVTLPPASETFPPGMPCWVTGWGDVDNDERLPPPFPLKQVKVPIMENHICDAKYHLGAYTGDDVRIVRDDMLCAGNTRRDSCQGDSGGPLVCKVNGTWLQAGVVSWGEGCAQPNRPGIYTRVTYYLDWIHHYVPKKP

CCOC(=O)N1CCN(C(=O)[C@H](Cc2cccc(C(=N)N)c2)NS(=O)(=O)c2c(C(C)C)cc(C(C)C)cc2C(C)C)CC1.Cl [uPA inhibitor, Nα-2,4,6-Triisopropylphenylsulfonyl-(L)-3-amidinophenylalanine 4-ethoxycarbonylpiperazide hydrochloride]
pKi [1]: 5.31
pKi (Thrombin): 6.31
growth of developing rat pancreatic carcinomas [2, 6]: decrease
tumor weight [2, 6]: significant reduction
number of detected liver foci, % compared to vehicle-treated control ([2]; i.p., 1 mg/kg daily): 29%
mass of the tumor-containing pancreas, reduced by % ([2]; i.p., 1 mg/kg daily): 76%
masses of the subcutaneous tumors, reduced by % ([2]; i.p., 1 mg/kg daily): 54%
number of metastatic liver foci ([2]; rat pancreatic cancer model, vs vehicle-treated controls): substantially reduced
number of detected liver foci, % compared to vehicle-treated control ([2]; s.c., 1 mg/kg daily): 2%
mass of the tumor-containing pancreas, reduced by % ([2]; s.c., 1 mg/kg daily): 34%
masses of the subcutaneous tumors, reduced by % ([2]; s.c., 1 mg/kg daily): 60%
pKi (Plasmin): 6.41
tumor volume increase [3]: significantly more slowly
anti-metastatic effects in combination therapies (lymph nodes weight, macroscopic lung foci number) ([4]; WX-UK1 and the cytostatic agents): additional anti-metastatic effects
anti-metastatic effects in combination ([4]; combined with either epirubicin and in particular with 5-FU): statistically significant additive anti-metastatic effects
number of macroscopically detectable lung foci ([4]; compared with 5-FU): equally effective
number of macroscopically detectable lung foci ([4]; compared with epirubicin or paclitaxel): more effectively reduced
anti-tumor effects (tumor size development, final tumor weight) ([4]; daily administration): Dose-dependent anti-tumor effects
metastatic endpoints in combination ([4]; plus epirubicin, paclitaxel or 5-FU): tended to provide additive benefits
reducing lymphogenic spread as determined by lymph-node weight ([4]; single agent, compared with epirubicin, paclitaxel or 5-FU alone): more or similarly active
pKi (Urokinase (sc-urokinase); in vitro inhibition of urokinase, 25° C, pH 8.0, 5% ethanol, read-out: Ki): 6.39
pKi (Urokinase (sc-urokinase); read-out: Ki Urokinase): 6.39
pKi (Tryptase): 5.20
solubility ([5]; addition of 5% DMSO): 10^−3 mol/l
solubility ([5]; addition of 5% ethanol): 2×10^−4 moll
pKi (Factor XIIa): 4.89

Reference: patent US7342018B2, “Urokinase inhibitors and uses thereof” (Wilex AG, priority 1998, dated 2008)
